Experimental data from patent US8415497B2, “N-halogenated amino compounds and derivatives” (Novabay Pharmaceuticals, Inc., priority 2006, dated 2013).
Marks after values point to notes of the source that are not given here.

Assays:
Format in all cases: cell-based
[1] = tested on: Candida albicans (ATCC 10231); assay: Antimicrobial activity, minimum biocidal concentration; conditions: C. albicans 10231, pH 4 (Sal), 1 h
Description: (§1) To determine antimicrobial activity, we use Escherichia coli (ATCC 25922), Staphylococcus aureus (ATCC 29213), Pseudomonas aeruginosa (ATCC 27853), and Candida albicans (ATCC 10231) in primary screening. In addition, we use Staphylococcus aureus (MCC 91731), Pseudomonas aeruginosa (MCC 4438), and Candida albicans (MCC 50319), provided by Alcon Laboratories, Fort Worth, Tex. The microbial cultures are diluted in sterile saline pH 4 to prepare inocula. Test compounds are titrated by stepwise two-fold dilutions in sterile saline pH 4, 1.0×10^5 to 1.0×10^6 Colony Forming Units (CFU)/mL bacteriamicrobe is added to each tube, mixed by gentle vortexing, and then incubated at room temperature for 1 h. Bacterial plating on Petri dishes (Tryptic Soy agar or Saboraud's Dextrose agar) is performed immediately after the designated exposure after neutralization of the test article dilutions in Dey-Engley Broth. Plates are incubated at 37° C., and the numbers of bacteria are counted by direct colony count to quantitate the surviving bacteria as CFU/mL. Positive growth controls are made with sterile 0.9% saline. All compounds are tested three times. The results are tabulated to show the comparison of antimicrobial effectiveness range of the compounds.

[2] = tested on: mouse fibroblast cells (ATCC CCL-1, L929); assay: Cytotoxicity, WST-8 colorimetric assay; conditions: 60 min exposure
Description: Cytotoxicity is assessed by a colorimetric assay system using the Dojindo™ cell counting kit containing 2-(2-methoxy-4-nitrophenyl)-3-(4-nitrophenyl)—S—(2,4-disulfophenyl)-2H-tetrazolium, monosodium salt (WST-8). In this assay, the WST-8 reagent is bioreduced by cellular dehydrogenases to a formazan product that is highly soluble in tissue culture medium. The orange formazan, which is produced only by live cells, is a direct measure of cell viability and can be read spectrophotometrically (for example, evaluation of a soluble tetrazolium/formazan assay for cell growth and drug sensitivity in culture using human and other tumor cell lines is described by Scudiero D A, Shoemaker R A H, Paul K D, Monks A, Tierney S, Nofziger T H, Currens M J, Seniff D, Boyd M R. Cancer Res. 1988 Sep. 1; 48(17):4827-33). Similar approaches for determining the cell viability are known in the art.
In a standard assay, mouse fibroblast cells (ATCC CCL-1, L929), are cultured in Minimum Essential Medium, α-medium supplemented with 10% heat inactivated fetal bovine serum, L-glutamine, penicillin and streptomycin. Cells are trypsinized and counted under the microscope and seeded at 1.5×10^4 total cells per 100 μL per well of a flat-bottom 96-well plate in order to achieve ˜80% confluence after overnight incubation at 37° C. On the day of the assay, the tissue culture medium is removed and replaced with 30 μL of fresh medium.
Test articles are prepared as 2-fold serial dilutions and 170 μL, of each dilution is added into each of 4-wells (total volume per well=200 μL). The test plate is then returned to the 37° C. incubator for 60 min. Immediately after the exposed time, test article from each well is replaced with 200 μL of fresh media. Plates are incubated at 37° C. for 18-20 hours. The following day growth medium is replaced with 100 μL/well of fresh medium containing 10/100 μL WST-8 reagent. Cells are incubated under growth conditions (5% CO2 at 37° C. humidified incubator), protected from light, until color development is achieved (usually 1-4 hours). Absorbance is read at 450 nm with reference wavelength at 750 nm using Molecular Device SpectraMax M5 plate reader. Untreated or vehicle only treated cells receiving WST-8 reagent serve as positive cell proliferation controls.
The CT50 value for each compound was calculated from the absorbance values (A450-750) and is defined as the concentration of test article that results in survival of 50% of the cells following treatment. The absorbance A450-750 from each well of untreated cells and from each well within the dilution series was measured. To calculate the CT50 for each compound, all compound concentrations were first log-transformed using GraphPad Prism4 (ver 4.03) software. Next, a non-linear regression (curve fit) analysis was performed on all the absorbance data measured from the dilution series, including the absorbance data obtained from wells of the untreated control cells. For each dilution within the dilution series, an average A450-750 was calculated from the four replicate wells. The average A450-750 data were plotted on a y-axis against the log-transformed compound concentration on the x-axis, and the CT50 value calculated from the resulting best-fit curve.

[3] = tested on: Staphylococcus aureus (ATCC 29213); assay: Antimicrobial activity, minimum bactericidal/biocidal concentration; conditions: S. aureus 29213, pH 4 (Sal), 1 h
Description: as §1

[4] = tested on: Escherichia coli (ATCC 25922); assay: as above; conditions: E. coli 25922, pH 4 (Sal), 1 h
Description: as §1

cells = assay: Cell toxicity, XTT assay
Text: (§2) The results of our discovery provide support for antimicrobial activity of 3-(4-chlorophenyl)-2-(dichloroamino)-2-methylpropane-1-sulfonic acid in 0.9% saline at pH 3.5. […] In contrast, cell toxicity is seen at a 1000-fold higher range in the mM range.

[5] = Concentration dependence of antimicrobial activity; conditions: 0.9% saline at pH 3.5
Text: as §2

[6] = tested on: Staphylococcus aureus (MCC 91731); assay: Antimicrobial activity, minimum biocidal concentration; conditions: S. aureus MCC 91731 (*), 1 h
Description: as §1, with “Test compounds are titrated by stepwise two-fold dilutions in sterile saline pH 4, 1.0×10^5 to 1.0×10^6 Colony Forming Units (CFU)/mL bacteriamicrobe is added to each tube, mixed by gentle vortexing, and then incubated at room temperature for 1 h.” left out

[7] = tested on: Pseudomonas aeruginosa (MCC 4438); assay: as above; conditions: P. aeruginosa MCC 4438 (#), 1 h
Description: as §1, with “[…] […]” for “The microbial cultures are diluted in sterile saline pH 4 to prepare inocula. Test compounds are titrated by stepwise two-fold dilutions in sterile saline pH 4, 1.0×10^5 to 1.0×10^6 Colony Forming Units (CFU)/mL bacteriamicrobe is added to each tube, mixed by gentle vortexing, and then incubated at room temperature for 1 h.”

[8] = tested on: Candida albicans (MCC 50319); assay: as above; conditions: C. albicans MCC 50319 (+), 1 h
Description: as §1, with “[…] […]” for “The microbial cultures are diluted in sterile saline pH 4 to prepare inocula. Test compounds are titrated by stepwise two-fold dilutions in sterile saline pH 4, 1.0×10^5 to 1.0×10^6 Colony Forming Units (CFU)/mL bacteriamicrobe is added to each tube, mixed by gentle vortexing, and then incubated at room temperature for 1 h.”

Row | Structure (SMILES) | Minimum Biocidal Concentration (MBC) (≧99.9% kill) [1] [µg/mL] | CT50 (concentration that results in survival of 50% of the cells) ([2]; pH 4 (Sal)) [mM] | Minimum Biocidal Concentration (MBC) (≧99.9% kill) [3] [µg/mL] | Minimum Biocidal Concentration (MBC) (≧99.9% kill) [4] [µg/mL] | Minimum Biocidal Concentration (MBC) (≧99.9% kill) ([6]; pH 4 (Sal)) | Minimum Biocidal Concentration (MBC) (≧99.9% kill) ([7]; pH 4 (Sal)) | also measured
1 | CC(C)(CS(=O)(=O)O)C(=O)OCC(C)(C)N(Cl)Cl [Compound 625, 3-(2-(Dichloroamino)-2-methylpropoxy)-2,2-dimethyl-3-oxopropane-1-sulfonic acid] | 16 | 2.6 | 8 | 4 | – | – | –
2 | CC(Cc1ccc(Cl)cc1)(CS(=O)(=O)O)N(Cl)Cl (stereo not shown) [Compound 570, 3-(4-chlorophenyl)-2-(dichloroamino)-2-methylpropane-1-sulfonic acid] | – | – | – | – | – | – | cell toxicity range relative to antimicrobial range (cells): 1000 fold; tolerance of treatment, cell proliferation versus untreated control cells (cells; XTT assay): able to tolerate the treatment and be able to go through normal cell proliferation cycles; antimicrobial activity [5]: considerable in a μM range
3 | CC(C)(CC(=O)OCCS(=O)(=O)O)N(Cl)Cl [Compound 628, 2-(3-(Dichloroamino)-3-methylbutanoyloxy)ethanesulfonic acid] | 64 | – | 2 | 2 | – | – | –
4 | CC(=O)NS(=O)(=O)CC(C)(C)N(Cl)Cl [Compound 627, N-(2-(Dichloroamino)-2-methylpropylsulfonyl)acetamide] | 64 | – | 1 | 2 | – | – | –
5 | CNS(=O)(=O)CC(C)(C)N(Cl)Cl [Compound 626, 2-(Dichloroamino)-N,2-dimethylpropane-1-sulfonamide] | 8 | – | 0.5 | 4 | – | – | –
6 | O=S(=O)(O)CC1(N(Cl)Cl)CCCCCC1 [Compound 601, (1-(Dichloroamino)cycloheptyl)methanesulfonic acid] | – | – | – | – | 0.25* μg/mL | 0.5# μg/mL | –
7 | CC(=O)N1CCC(CS(=O)(=O)O)(N(Cl)Cl)CC1 [Compound 637, (1-Acetyl-4-(dichloroamino)piperidin-4-yl)methanesulfonic acid] | 128 | – | 4 | 16 | – | – | –
8 | CC(C)(COC(=O)CCS(=O)(=O)O)N(Cl)Cl [Compound 614, 3-(2-(Dichloroamino)-2-methylpropoxy)-3-oxopropane-1-sulfonic acid] | – | 0.43 | – | – | 1* μg/mL | 4# μg/mL | CT50 (concentration that results in survival of 50% of the cells) ([2]; pH 7 (PBS)): 4.6 mM; Minimum Biocidal Concentration (MBC) (≧99.9% kill) ([6]; pH 7 (PBS)): 128* μg/mL; Minimum Biocidal Concentration (MBC) (≧99.9% kill) ([7]; pH 7 (PBS)): 256# μg/mL; Minimum Biocidal Concentration (MBC) (≧99.9% kill) ([8]; pH 4 (Sal)): 4+ μg/mL; Minimum Biocidal Concentration (MBC) (≧99.9% kill) ([8]; pH 7 (PBS)): 512+ μg/mL
9 | CC1(N(Cl)Cl)CCCCC1S(=O)(=O)O (stereo not shown) [Compound 611, 2-(Dichloroamino)-2-methylcyclohexane-1-sulfonic acid] | – | 0.25 | – | – | 1* μg/mL | 1# μg/mL | CT50 (concentration that results in survival of 50% of the cells) ([2]; pH 7 (PBS)): 4.6 mM; Minimum Biocidal Concentration (MBC) (≧99.9% kill) ([6]; pH 7 (PBS)): 64* μg/mL; Minimum Biocidal Concentration (MBC) (≧99.9% kill) ([7]; pH 7 (PBS)): 32# μg/mL; Minimum Biocidal Concentration (MBC) (≧99.9% kill) ([8]; pH 4 (Sal)): 0.5+ μg/mL; Minimum Biocidal Concentration (MBC) (≧99.9% kill) ([8]; pH 7 (PBS)): 64+ μg/mL
10 | CC(C)(CS(=O)(=O)CCS(=O)(=O)O)N(Cl)Cl [Compound 630, 2-(2-(Dichloroamino)-2-methylpropylsulfonyl)ethanesulfonic acid] | 64 | – | 8 | 4 | – | – | –
